Several values for one entry are separate records, joined by “and”; a condition that tells them apart may be missing. Equal values may be shown once. Bounds are passed on as bounds.

For one data set, the system named is zebrafish liver. Put plainly: Hepatoxicity assay in Tg(fabp10a:EGFP-mCherry) embryos. The conditions noted are these: 10 μM, embryos treated from 3 dpf.
A further data set concerns Huh7 cells. Put plainly: Cell proliferation assay I (PrestoBlue), Huh7. The conditions noted are these: 72 h; for Huh7 cell survival (%): vs control without drug. It counts as cell-based, human. As to the method:
(§1) U-87 MG cells (a human primary glioblastoma cell line) were cultured in MEM medium (Gibco, New York, NY, USA). A375 cells (a human melanoma cell line) and Huh7 cells (a human hepatocellular carcinoma (HCC) cell line) were cultured in DMEM medium (HyClone, Logan, UT, USA). The culture media were supplemented with 10% heat-inactivated fetal bovine serum (FBS), 1% penicillin/streptomycin and 1% […] (HyClone, Logan, UT, USA). Cells were seeded in 96-well plates at a density of 2000 cells/well. Then, cells were transferred to 37° C. incubator. […] At the end of incubation, the PrestoBlue™ Cell Viability Reagent (Invitrogen, Eugene, OR, USA) was distributed to cells. The plates were incubated for 90 min at 37° C. in a humidified, 5% CO2 atmosphere and the fluorescence was then recorded at Ex/Em: 560 nm/590 nm. Triplicate experiments were performed.

A further data set has as its system U87. Description: Cell proliferation assay II (MTS), U87. The class given is cell-based, human. The following applies: U87, 72 h, mean ± SD. Here is the method: (§2) Human lung cancer cell line NCI-H226 was purchased from the American type culture collection (CRL-5826). NCI-H226 was grown in RPMI supplemented with 10% FBS in a humidified atmosphere containing 5% CO2 at 37° C. Human melanoma cell line A375, human pharynx squamous cell carcinoma FaDu, human cervical epithelioid carcinoma HeLa and human chronic myelogenous leukemia K-562 were purchased from Bioresource Collection and Research Center (BCRC), Hsinchu 300, Taiwan. A375 cells were grown in DMEM supplemented with 10% FBS in a humidified atmosphere 5% CO2 at 37° C. FaDu cells were grown in DMEM supplemented with 10% FBS in a humidified atmosphere 5% CO2 at 37° C. HeLa cell were grown in DMEM supplemented with 10% FBS in a humidified atmosphere 5% CO2 at 37° C. […]
(§3) MTS/PMS solution was freshly prepared and added (20 μl per well) into each well of 96-well cultured plate. The assay plate was incubated for 3 hours at 37° C., 5% CO2, under humidified atmosphere, and measured the absorbance at 490 nm using Multiskan™ GO Microplate Spectrophotometer (Thermo Fisher Scientific).
(§4) Corrected absorbance values were obtained by subtracting the average 490 nm absorbance of the negative control wells (medium only, no cell, as background control) from all other absorbance values. Percentage inhibition of cell growth for compound treatment was calculated using this formula: […]

Data set [1] concerns ccne1, cdk1, cdk2, myca, mycb, ccnd1. Description: qPCR of cell proliferation markers and beta-catenin downstream target genes in tert transgenic zebrafish. The following applies: 0.5×(50 μM), 15 dpf, vs untreated. It counts as in vivo, zebrafish (Danio rerio). Here is the method: (§5) 50 zebrafish larva were placed in a fish tank with 800 ml of system water, the water were refreshed every day at 4 pm. From day 5 to day 15, AB(WT) and tert transgenic zebrafish were fed with normal larva food, plus 20 ml of Paramecium, and there must be 2 hours between meals, four meals a day. The last meal must be fed after 1 hour before the water changed. […] The fish were fasting for one days before collecting the samples for RNA extraction and hematoxylin-eosin (H&E) staining.
Total RNA was isolated by NucleoSpin® RNA kit ([…]-NAGEL, USA). […]
The resulting first-strand cDNA was used as a template for […] PCR in triplicate by using the SYBR Green Q-PCR Master Mix Kit (Applied Biosystems) using an ABI PRISM 7900 System. After normalization to internal control actin, the expression ratio between the experimental and control groups was calculated using the comparative Ct method. The relative expression ratio (fold change) was calculated based on ΔΔCt, ΔΔCt=(Cttarget−Ctactin)treatment−(Cttarget−Ctactin)control, and fold change=2^−ΔΔ^Ct. […] At least three independent samples were used for Q-PCR, and the standard error was calculated and incorporated into the presented data as […]±standard error. Differences among variables were assessed by a two-tailed Student's t test. […]
(Quantitative PCR measures a nucleic acid by following its amplification.)

A further data set has as its system U-87 MG cells. Description: Cell proliferation assay I (PrestoBlue), U-87 MG. The class given is cell-based, human. The conditions noted are these: 72 h; for U-87 MG cell survival (%): vs control without drug. As to the method:
as §1

A further data set relates to Hep3B hepatoma cells. Put plainly: Xenotransplantation assay of cell proliferation in zebrafish embryos. The class given is in vivo, human. The conditions noted are these: two days, zebrafish embryo xenotransplant.
Data set [2] has as its system tert transgenic zebrafish. Put plainly: H&E staining of liver cells of tert transgenic zebrafish. The class given is in vivo, zebrafish (Danio rerio). The following applies: 15 dpf. Here is the method:
as §5
After 1 month of RO injection, the fish was sacrificed, and the liver was taken out and divided into two parts for RNA isolation and paraffin section. The liver tissues were frozen in liquid nitrogen immediately after sectioning and stored at −80° C. for later RNA isolation. For histochemistry analysis, liver tissues were fixed in a 10% formalin solution (Sigma-Aldrich Inc., St. Louis, MO, USA). The fixed tissue was embedded in paraffin, and sectioned at 5-μm thickness mounted on poly-L-lysine coated slides, and the sections were stained with hematoxylin and eosin (H&E stain), which this part was performed by the Pathology core facility.
H&E staining is mainly to observe the states of mitotic figures, […] cells, and macronucleated cells that represent hepatocyte undergoes carcinogenesis.

The subject of a further data set is A375. Description: Cell proliferation assay II (MTS), A375. It counts as cell-based, human. The conditions noted are these: A375, 72 h, mean ± SD. As to the method:
as §2, §3, §4

For the next data set, the system named is FaDu. Description: Cell proliferation assay II (MTS), FaDu. The class given is cell-based, human. The conditions noted are these: 72 h, mean ± SD. As to the method: as §2, §3, §4
The next data set concerns K-562. Description: Cell proliferation assay II (MTS), K-562. It counts as cell-based, human. The conditions noted are these: K-562, 72 h, mean ± SD. Here is the method:
as §2, §3, §4

In the next data set the test system is NCI-H226. Put plainly: Cell proliferation assay II (MTS), NCI-H226. It counts as cell-based, human. The following applies: NCI-H226, 72 h, mean ± SD. As to the method:
as §2, §3, §4

A further data set has as its system A375 cells. Put plainly: Cell proliferation assay I (PrestoBlue), A375. It counts as cell-based, human. The conditions noted are these: 72 h; for A375 cell survival (%): vs control without drug. As to the method:
as §1

For a further data set, the system named is HeLa. Put plainly: Cell proliferation assay II (MTS), HeLa. The class given is cell-based, human. The following applies: 72 h, mean ± SD. Here is the method:
as §2, §3, §4

Description for zebrafish liver: About 3 dpf, 50 embryos were distributed into 10 ml chemical solution/well (chemical/E3 solution) in 6-well plates until 5 dpf and new chemical solution was replaced every day. At 5 dpf, embryos were anesthetized with tricaine (0.016%) and the images of 8 to 10 embryos randomly per well were taken by ZEISS AxioCam MRc. There are three different images which one with auto exposure-time for the clearest view, one with fixed exposure-time to capture RFP (red fluorescent protein) intensity below saturation for intensity measurement and comparison, and the last one with sufficient exposure-time to show the whole liver region for size measurement. Image J software was then used to quantify intensity of RFP and liver size. Average RFP intensity in the liver was calculated and compared within the same group of lateral view fry under the same magnification and fixed exposure-time.
Images were analyzed by Image J software.

Turning to `CNC(=O)c1cc(Oc2ccc(NC(=O)Nc3ccc(Cl)c(C(F)(F)F)c3)cc2)ccn1` [Sorafenib], in the data set with zebrafish liver, the “liver size vs DMSO treated control” value was “significantly reduce liver size”.

The term IC50 denotes the concentration that inhibits the measured activity by half. Low values mean higher potency, high ones lower potency. For the compound “cobalt-containing glutamic acid (COGA) complex”, the “Huh7 cell survival (%)” value is 102% and 107% and 100% in the data set with Huh7 cells (5 nM); 88% and 92% and 84% with Huh7 cells (14 nM); 78% and 80% and 72% in the data set on Huh7 cells (41 nM); 73% and 77% and 71% in the data set with Huh7 cells (123 nM); 74% and 75% and 69% in the data set with Huh7 cells (370 nM); 82% and 79% and 73% in the data set on Huh7 cells (1111 nM). The “Huh7 cell survival (%)” value was 80% and 82% and 75% with Huh7 cells (3333 nM); 89% and 92% and 82% in the data set with Huh7 cells (10000 nM). Besides, the IC50 in the data set with Huh7 cells (Huh7 cells) was 0.287 ± 0.0618 µM; in the data set on U87, 42 µM; in the data set with U-87 MG cells (U-87 MG cells), greater than 10 µM; in the data set on A375, 102 ± 2 µM; with FaDu, 74.6 ± 63 µM; with K-562 it was 54.5 ± 4.4 µM. Further, the IC50 in the data set with NCI-H226 was 45 µM and 44.5 µM; with A375 cells (A375 cells), 0.0687 ± 0.0158 µM; in the data set on HeLa, 73.7 ± 19 µM. The “expression of cell proliferation markers (ccne1, cdk1, cdk2) and beta-catenin downstream target genes (myca, mycb, ccnd1)” value in [1] is “significantly reduced”. Also, the “U-87 MG cell survival (%)” value in the data set on U-87 MG cells (5 nM) was 100% and 105% and 103%; in the data set on U-87 MG cells (14 nM) it was 95% and 97%; with U-87 MG cells (41 nM), 89% and 93%; with U-87 MG cells (123 nM), 89%; in the data set on U-87 MG cells (370 nM), 87% and 91% and 85%; with U-87 MG cells (1111 nM), 87% and 90% and 84%. Besides, the “U-87 MG cell survival (%)” value was 87% and 89% and 84% in the data set with U-87 MG cells (3333 nM); 89% and 90% and 88% with U-87 MG cells (10000 nM). In addition, the “hepatoma cell proliferation compared to the DMSO treatment” value with Hep3B hepatoma cells (0.5×(50 μM)) and in the data set with Hep3B hepatoma cells (1×(100 μM)) was “significantly reduced” each time. In addition, the “number of mitotic figures, trinucleated cells, and macronucleated cells” value in data set [2] is “significantly reduced”. In addition, the “A375 cell survival (%)” value was 110% and 104% and 105% with A375 cells (5 nM); 89% and 87% and 85% in the data set with A375 cells (14 nM); 74% and 71% and 68% in the data set with A375 cells (41 nM); 72% and 69% and 67% in the data set on A375 cells (123 nM); 69% and 68% and 62% with A375 cells (370 nM); 70% and 71% and 67% with A375 cells (1111 nM). Besides, the “A375 cell survival (%)” value with A375 cells (3333 nM) was 77% and 76% and 72%; in the data set with A375 cells (10000 nM), 89% and 88% and 84%.

Source of the values: US20240398829A1, “A COBALT-[…] AMINO ACID COMPLEX AND ITS USE FOR TREATING CANCER” (AMELIO BIOTECH CO., LTD., priority 2021, published 2024).
